Source: PMC13185115, “Photovermellogens: Minimalistic Pyridinium-Based Acylhydrazones with Photoswitchable Basicity for Operation in Aqueous Media” (The Journal of Organic Chemistry, 2026)

What was measured:
[1] = UV-vis absorption spectra in buffered water (λmax, molar absorption coefficient); format: physicochemical; conditions: for ε of the acidic form from absorbance vs concentration: P bH·Cl pH 5, 378 nm, P cH·Cl pH 6, 350 nm, P dH·Cl pH 6, 411 nm; for ε of the basic form from absorbance vs concentration: P bH·Cl pH 12, 456 nm, P cH·Cl pH 12, 433 nm, P dH·Cl pH 13, 500 nm; for λmax (E-P) / ε (E-P): conjugate base; for λmax (E-P) / λmax (E-PH^+) / λmax (Z-P) / λmax (Z-PH^+): maximum of the longest-wavelength absorption band; for λmax (E-P) / ε (E-P) / λmax (E-PH^+) / ε (E-PH^+) / λmax (Z-P) / ε (Z-P) / λmax (Z-PH^+) / ε (Z-PH^+): water; for ε (E-P) / ε (Z-P): molar absorption coefficient; for ε (E-P) / ε (E-PH^+) / ε (Z-P) / ε (Z-PH^+): error ± 5%; for ε (E-PH^+) / ε (Z-PH^+): molar absorption coefficient at λmax; for λmax (Z-P) / ε (Z-P): Z conjugate base
From the text: With the photovermellogens synthesized and fully characterized, their acid–base properties were next investigated by UV–vis spectroscopy to determine whether the pH-responsiveness characteristic of parent vermellogens was retained. Indeed, P a–dH·Cl reproduced the archetypical absorption changes of vermellogens (Figures c and S130–S137, SI1). , In essence, the characteristic intense π–π* absorption bands of the cations undergo a considerable bathochromic shift upon deprotonation (Table ), as also confirmed by our quantum chemical calculations (Figure S2, S2), causing a notable color change from yellow to red. This pronounced shift allowed the estimation of pK a values for E-P a–dH^+ via UV–vis absorption titrations, which, as for other vermellogens, fall within the biologically relevant pH range (Figure c, Table and Figures S130–S137, SI1). Changes in the protonation state were also easily monitored by ^1H NMR spectroscopy, with the gain in electronic density translating in a substantial shielding of resonances of the corresponding conjugate bases E/Z-P a–d (Figure a). As already observed for E-P a–dH^+, the deprotonated species were also thermally stable in the absence of light.
Having confirmed the photochemical behavior of the protonated forms, we next explored their light-responsiveness in the deprotonated state. […] To probe whether Z-P a–c could nonetheless be generated indirectly, we explored a consecutive photoisomerization–deprotonation sequence. Thus, E-P a–cH^+ was first irradiated at 254 nm and pH 6 to enrich the Z population, followed by immediate adjustment of the solution to pH 13. Under these conditions, transient spectroscopic features were observed, consistent with the kinetic trapping of the metastable Z-P a–c species. […] These spectroscopic observations enabled the estimation of virtual pK a values for the Z-enriched solutions (Table and Figures S163–168, SI1), which confirmed the reduced acidity of the NH group in the Z-isomers, presumably arising from intramolecular hydrogen-bond formation.
Figure S132. UV-Vis spectra of P bH·Cl at pH 5 (black) and pH 12 (red) at 20 µM. b) Linear relationship at pH 5 between absorbance at 378 nm and concentration of P bH·Cl (ε = 42265 ± 838 L·mol -1·cm-1). c) Linear relationship at pH 12 between absorbance at 456 nm and concentration of P bH·Cl (ε = 42143 ± 1044 L·mol -1·cm-1).
Figure S133. UV-Vis spectra for the titration of P bH·Cl (20 μM in phosphate buffer solutions in the 4.1-10.6 pH range). b) Absorption of P bH+ at λ = 378 nm plotted against pH. c) Linear fitting […]
Figure S134. UV-Vis spectra of P cH·Cl at pH 6 (black) and pH 12 (red) at 14 µM. b) Linear relationship at pH 6 between absorbance at 350 nm and concentration of P cH·Cl (ε = 49266 ± 1780 L·mol-1·cm-1). c) Linear relationship at pH 12 between absorbance at 433 nm and concentration of P cH·Cl (ε = 46382 ± 1667 L·mol -1·cm-1).
Figure S135.UV-Vis spectra for the titration of P cH·Cl, (14 μM in phosphate buffer solutions in the 5.1-11.7 pH range). b) Absorption of P cH+ at λ = 351 nm plotted against pH. c) Linear fitting […]
Figure S136. UV-Vis spectra of P dH·Cl at pH 6 (red) and pH 13 (black) at 11 µM. b) Linear relationship at pH 6 between absorbance at 411 nm and concentration of P dH·Cl (ε = 65691 ± 2966 L·mol-1·cm-1). c) Linear relationship at pH 13 between absorbance at 500 nm and concentration of P dH·Cl (ε = 69154 ± 3100 L·mol -1·cm-1).
Figure S137. UV-Vis spectra for the titration of P dH·Cl (11 μM in phosphate buffer solutions in the 5.1-11.7 pH range). b) Absorption of P dH+ at λ = 410 nm plotted against pH. c) Linear fitting

[2] = Thermal Z-PH+ to E-PH+ back-isomerization kinetics; format: physicochemical
From the text: Photoisomerization studies were subsequently carried out in acidic medium (pH = pK a – 2) in order to assess the photoresponse of the protonated species. Under these conditions, the anticipated photoisomerization of the thermally stable E-P a–dH^+ species was investigated by UV–vis absorption spectroscopy under irradiation at 254 nm. […] It is noteworthy that the irradiation wavelength can be extended to 365 nm, yielding virtually the same observations as for 254 nm irradiation (see footnotes of Table ). Irradiation also produced clear NMR spectral changes that support the occurrence of the E→Z isomerization. In essence, the signals Hf–h of the phenyl moiety were only slightly affected, whereas those of the pyridinium and acylhydrazone fragments shifted markedly, consistent with the formation of an intramolecular hydrogen bond in the Z-P a–cH^+ species. The reverse Z→E transformation of the protonated forms P a–cH^+ was also achieved upon irradiation at λ > 420 nm, giving lower quantum yields and less favorable PSDs (Figures S145–S147, S149–154, S1).
5.5. Z-P a-cH+→E-P a-cH+ thermal back-isomerization kinetics.
Figure S155. Absorption spectrum variation during 48h at room temperature from the PSS reached for P aH·Cl (7µM, pH 6, Red) state during 48h. E-isomer absorption spectrum in green.
Even though the kinetics has not been fully completed, it can be observed that it occurs much more slowly than photochemical processes.
To obtain an estimation of P aH·Cl Z→E thermal half-live at room temperature, the Z →E thermal reversion kinetics were monitored starting from the 254nm photostationary state at different temperatures (47, 55 and 64 °C). By tracking the absorbance changes at 420 nm, an Arrhenius analysis was performed, allowing the determination of the activation energy (EA) and the estimation of the thermal half-life at 25 °C.

Row | ε of the acidic form from absorbance vs concentration [1] | ε of the basic form from absorbance vs concentration [1] | λmax (E-P) [1] | ε (E-P) [1] | λmax (E-PH^+) [1] | ε (E-PH^+) [1] | λmax (Z-P) [1] | ε (Z-P) [1] | λmax (Z-PH^+) [1] | ε (Z-PH^+) [1] | SMILES | k Z→E unimolecular rate constant, thermal back-isomerization ([2]; heating to 60 °C, pD 6) | k Z→E unimolecular rate constant, thermal back-isomerization ([2]; heating to 70 °C, pD 5) | k Z→E unimolecular rate constant, thermal back-isomerization ([2]; heating to 70 °C, pD 6)
1 | 65691 ± 2966 L/mol/cm | 69154 ± 3100 L/mol/cm | 500 nm | 69,000 M^–1·cm^–1 | 411 nm | 66,000 M^–1·cm^–1 |  |  |  |  | C[n+]1ccc(-c2ccc(NN=CC(=O)c3ccccc3)cc2)cc1 [P dH^+] |  |  | 
2 |  |  | 429 nm | 39,000 M^–1·cm^–1 | 342 nm | 41,000 M^–1·cm^–1 | 420 nm | 18,000 M^–1·cm^–1 | 352 nm | 43,000 M^–1·cm^–1 | C[n+]1ccc(NN=CC(=O)c2ccccc2)cc1 [P aH^+] | 4.1 10^–4 s^–1 |  | 
3 | 42265 ± 838 L/mol/cm | 42143 ± 1044 L/mol/cm | 456 nm | 42,000 M^–1·cm^–1 | 378 nm | 42,000 M^–1·cm^–1 | 445 nm | 13,000 M^–1·cm^–1 | 384 nm | 36000 M^–1·cm^–1 | C[n+]1ccc(NN=CC(=O)c2ccccc2)c2ccccc21 [P bH^+] |  | 9.8 10^–4 s^–1 | 
4 | 49266 ± 1780 L/mol/cm | 46382 ± 1667 L/mol/cm | 432 nm | 46,000 M^–1·cm^–1 | 349 nm | 49,000 M^–1·cm^–1 | 420 nm | 15,000 M^–1·cm^–1 | 359 nm | 43,000 M^–1·cm^–1 | O=C(C=NNc1cc[n+](-c2ccccc2)cc1)c1ccccc1 [P cH^+] |  |  | 2.4 10^–4 s^–1
